Experimental data taken from US20190352276A1, “INHIBITORS OF BRUTON'S TYROSINE KINASE” (Joint Stock Company "Biocad", priority 2016, published 2019).
pIC50: −log10 of the molar value.

What was measured:
[1] = test system: Z-138 (mantle cell lymphoma); assay: Antiproliferative activity, Z-138 cells (Alamar Blue); type: cell-based; settings: Homo sapiens, Table 10, 72 h, average of several tests
Outline: (§1)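 Cells (~3*10^4 per well) in RPMI-1640 with 10% FBS and gentamicin were exposed to diluted compounds (DMSO <1%) for 72 h at 37 °C, 5% CO2. Alamar Blue was then added for 14-16 h, and fluorescence was read at Ex 540/Em 590 nm. IC50 came from a four-parameter logistic fit.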

[2] = test system: Mino (mantle cell lymphoma); assay: Antiproliferative activity, Mino cells (Alamar Blue); type: cell-based; settings: Homo sapiens, Table 10, 72 h, average of several tests
Outline: as §1

[3] = test system: DOHH2 (follicular lymphoma); assay: Antiproliferative activity, DOHH2 cells (Alamar Blue); type: cell-based; settings: Homo sapiens, DOHH-2, Table 10, 72 h, average of several tests
Experimental: Antiproliferative activity of BTK inhibitors was measured in cell-based bioassay on B-cells cultures: Mino (mantle cell lymphoma, ATCC® CRL-3000™), Z-138 (mantle cell lymphoma, ATCC® CRL-3001™) and DOHH2 (follicular lymphoma, Creative Bioarray CSC-C0219) using cell viability reagent Alamar Blue (Invitrogen, #DAL 1100). Cells were cultured in 10% FB S-supplemented (HyClone, #SH3008803/Gibco, #16140-071) RPMI-1640 (PanEco, #S330p) for at least 1 passage after thawing, washed with PBS and passaged in 96-well culture plates (Corning, #3599) with growth medium with 10% FBS (HyClone, #SH3008803/Gibco, #16140-071) and antibiotic (50 μg/ml of gentamicin (Biolot, #1.3.16))≈3*10^4 cells in 50 μl of medium per well.
The compounds were dissolved in DMSO and diluted with the assay medium to final concentrations ranging from […]. 150 μl of each diluted compound were then added to each well (final concentration of DMSO was less than 1%) and incubated at 37° C. in an incubator under 5% of CO2 for 72 h. After incubation, 20 μl of Alamar Blue reagent (Invitrogen, #DAL1100) were added to each well. The plates were shaked on an orbital shaker (Biosan, Latvia) and then incubated for 14-16 hours at 37° C. in the incubator.
The number of living cells were estimated, measuring the fluorescence signal at the excitation wavelength (REx) of 540 nm and the emission wavelength (λEm) of 590 nm on a microplate reader (Tecan Infinite M200Pro, Switzerland).
For each compound, IC50 was calculated using Magellan 7.2 software (Tecan, Switzerland) approximating experimental points by four-parameter logistic model with the optimization by Levenberg-Marquardt.

[4] = Stability in human blood plasma; settings: 10 μM in pooled human blood plasma, incubated 4 hours at 37° C.
[5] = General cytotoxicity on HepG2 cells (CC50; therapeutic index CC50 HepG2/IC50 Mino); type: cell-based; settings: human, HepG2 cells (hepatocellular carcinoma); Table 10; 72 hours, Alamar Blue; average of several tests
Outline: (§2)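 Cells seeded at 2*10^4 per well in DMEM, compounds added after 24 h at 200 μM to 4 μM final and incubated 72 h. Viability read with Alamar Blue to derive CC50; therapeutic index is CC50 (HepG2) divided by IC50 (Mino).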

[6] = test system: HepG2 cells (hepatocellular carcinoma); assay: as above; type: cell-based; settings: Table 10; therapeutic index
Outline: as §2

[7] = Permeability through the monolayer of Caco-2 cells; type: in vitro ADME; settings: human; for Papp A→B at 2 h, 10 μM / Papp B→A at 2 h, 10 μM: 2 h at 37° C.; for efflux ratio at 2 h, 10 μM: read-out: efflux (Papp B-A/Papp A-B)
Description: Assessment of permeability through the monolayer of Caco-2 cells allows to evaluate the ability of the candidate compounds to penetrate through biological membranes by active and passive transport.
Caco-2, the cells of the intestinal epithelium, had been cultured in transwell plate inserts with the filters (with pores of 0.4 μm, BD Falcon with High Density, #353495) for 21 days, and then the integrity of the monolayer were estimated with Lucifer Yellow dye (Sigma-Aldrich, USA) by standard protocol. When setting the A→B transfer, solutions of test substances were added in a buffer with pH 6.5 (Hanks solution, 10 mM HEPES, 15 mM glucose solution) with the concentration of 10 μM into the upper chamber; the lower chamber was filled with a buffer with pH 7.4 (Hanks solution, 10 mM HEPES, 15 mM glucose solution, 1% BSA). When setting B→A transfer, the upper chamber was filled with the buffer with pH 6.5, and solutions of the test substances were added in the buffer with pH 7.4 at the concentration of 10 μM in the lower chamber. Propranolol was used as a control substance (as it has high permeability).
We used gradient elution (1 mL/min flow rate). We determined the areas of peaks corresponding to the compounds. On the basis of peak areas in the calibration standards we determined the concentration of compound in the initial solution and in the samples from the wells of the upper and lower chambers.
Papp, permeability through the cell layer, was calculated using the following formula:
Papp=(C(t)*V)/(C(0)*t*Area), where
Papp is the effective constant of permeability, m/s V is the volume of solution (0.8 ml in A→B test, 0.2 ml in B→A test), ml Area is the surface area of the membrane (0.33 cm^2), cm^2 t is the time of incubation (7200 sec), sec C(0) is the concentration of the initial solution, μM C(t) is the concentration of the solution after 2 hours (the concentration in the sample from the well of the lower chamber in A→B test; the concentration in the sample from the well of the top chamber in B→A test), μM
The value was calculated with the following formula:
efflux=Papp B-A/Papp A-B, where
Papp A-B is the value of the permeability in the direct test (A→B); Papp B-A is the value of the permeability in the backward test in (B→A).

[8] = Chemical stability in artificial gastric fluid (SGF without enzymes); settings: 10 μM in SGF without enzymes, pH=1.4, 37° C.

`C=CC(=O)N1CCC[C@@H](n2nc(-c3ccc(-n4ccc(=O)cc4)cc3F)c3cncc(Cl)c32)C1` [BCD-BTK-204, (R)-1-(4-(1-(1-acryloylpiperidin-3-yl)-7-chloro-1H-pyrazolo[4,3-c]pyridin-3-yl)-3-fluorophenyl)pyridin-4(1H)-one] gave a pIC50 [1] of 4.68, a pIC50 [2] of 4.68 and a pIC50 [3] of 4.63. The “Amount of substance in the sample, % (stability in human blood plasma)” value (“Amount of substance in the sample, %” below) [4] was 91.9%, the CC50 at 72 h [5] was 62 µM and the “CC50 (HepG2)/IC50 (Mino)” value [6] was 2.95.
Molecule `C=CC(=O)N1CCC[C@@H](n2nc(-c3ccc(-n4ccc(=O)cc4)c(F)c3)c3cncc(Cl)c32)C1` [BCD-BTK-205, (R)-1-(4-(1-(1-acryloylpiperidin-3-yl)-7-chloro-1H-pyrazolo[4,3-c]pyridin-3-yl)-2-fluorophenyl)pyridin-4(1H)-one] has a pIC50 [1] of 4.60, a pIC50 [2] of 4.78 and a pIC50 [3] of 4.70. The “Amount of substance in the sample, %” value [4] was 88.6%, the CC50 at 72 h [5] was 57.2 µM and the “CC50 (HepG2)/IC50 (Mino)” value [6] was 3.45.
For `C=CC(=O)N1CCC[C@@H](n2nc(-c3ccc(Oc4ccncc4C#N)cc3)c3cncc(C#N)c32)C1` [BCD-BTK-213, (R)-1-(1-acryloylpiperidin-3-yl)-3-(4-(3-cyanopyridin-4-yloxy)phenyl)-1H-pyrazolo[4,3-c]pyridine-7-carbonitrile], the pIC50 [1] was 5.01, the pIC50 [2] was 5.50 and the pIC50 [3] was 4.71. The Papp A→B at 2 h, 10 μM [7] was 8.39 ×10⁻⁶ cm/s, the Papp B→A at 2 h, 10 μM [7] was 5.17 ×10⁻⁶ cm/s and the efflux ratio at 2 h, 10 μM [7] was 0.62. The CC50 at 72 h [5] was > 100 µM and the “CC50 (HepG2)/IC50 (Mino)” value [6] was >31.3.
In the case of `C=CC(=O)N1CCC[C@@H](n2nc(-c3ccc(C(=O)Nc4cc(C(F)(F)CC)ccn4)cc3)c3c(N)ncc(Cl)c32)C1` [BCD-BTK-231, (R)-4-(1-(1-acryloylpiperidin-3-yl)-4-amino-7-chloro-1H-pyrazolo[4,3-c]pyridin-3-yl)-N-(4-(1,1-difluoropropyl)pyridin-2-yl)benzamide], the pIC50 [1] was 5.47, the pIC50 [2] was 5.65 and the “Amount of substance in the sample, %” value [4] was 93.1%. For the same molecule, the “Amount of substance in the sample in % (chemical stability)” value (from here on “Amount of substance in the sample in %”) [8] was 100%, the Papp A→B at 2 h, 10 μM [7] was 9.8 ×10⁻⁶ cm/s and the Papp B→A at 2 h, 10 μM [7] was 1.84 ×10⁻⁶ cm/s. The efflux ratio at 2 h, 10 μM [7] was 0.19, the CC50 at 72 h [5] was 9.08 µM and the “CC50 (HepG2)/IC50 (Mino)” value [6] was 4.01.
For `C=CC(=O)N1CCC[C@@H](n2nc(-c3ccc(Oc4ccncc4C#N)cc3)c3c(N)ncc(Cl)c32)C1` [BCD-BTK-232, (R)-4-(4-(1-(1-acryloylpiperidin-3-yl)-4-amino-7-chloro-1H-pyrazolo[4,3-c]pyridin-3-yl)phenoxy)nicotinonitrile], the pIC50 [1] was 4.97, the pIC50 [2] was 4.82 and the “Amount of substance in the sample, %” value [4] was 88.6%. For the same molecule, the “Amount of substance in the sample in %” value [8] was 95.9%, the Papp A→B at 2 h, 10 μM [7] was 6.27 ×10⁻⁶ cm/s and the Papp B→A at 2 h, 10 μM [7] was 3.58 ×10⁻⁶ cm/s. For the same molecule, the efflux ratio at 2 h, 10 μM [7] was 0.57, the CC50 at 72 h [5] was 31.1 µM and the “CC50 (HepG2)/IC50 (Mino)” value [6] was 2.04.
With `CC#CC(=O)N1CC(Cn2nc(-c3ccc(Oc4ccncc4)cc3)c3cncc(Cl)c32)C1` [BCD-BTK-261, 1-(3-((7-chloro-3-(4-(pyridin-4-yloxy)phenyl)-1H-pyrazolo[4,3-c]pyridin-1-yl)methyl)azetidin-1-yl)but-2-yn-1-one] the pIC50 [1] was 5.30, the pIC50 [2] was 5.37 and the “Amount of substance in the sample, %” value [4] was 100.0%. For the same molecule, the “Amount of substance in the sample in %” value [8] was 100%, the Papp A→B at 2 h, 10 μM [7] was 8.3 ×10⁻⁶ cm/s and the Papp B→A at 2 h, 10 μM [7] was 0.95 ×10⁻⁶ cm/s. For the same molecule, the efflux ratio at 2 h, 10 μM [7] was 0.11, the CC50 at 72 h [5] was 8.33 µM and the “CC50 (HepG2)/IC50 (Mino)” value [6] was 1.95.
Work on `C=CC(=O)N1CCC[C@@H](n2nc(-c3cnc(C(=O)Nc4cccc(F)n4)nc3)c3cncc(Cl)c32)C1` [BCD-BTK-277, (R)-5-(1-(1-acryloylpiperidin-3-yl)-7-chloro-1H-pyrazolo[4,3-c]pyridin-3-yl)-N-(6-fluoropyridin-2-yl)pyrimidine-2-carboxamide] yielded a pIC50 [1] of 4.52, a pIC50 [2] of 4.75 and a pIC50 [3] of 4.69. For the same molecule, the “Amount of substance in the sample in %” value [8] was 99.8%, the CC50 at 72 h [5] was 41.9 µM and the “CC50 (HepG2)/IC50 (Mino)” value [6] was 2.33.
